Data on twelve compounds can be found in patent US9290440B2, “Bicyclic compound” (TOA EIYO LTD., priority 2012, dated 2016).

Like-named read-outs stand apart in the source and are kept apart here.

In assay [1] the target is T1, human sGC α subunit and β subunit (Homo sapiens, UniProt Q02153).
T1 construct: expressed in transfected cells
T1 sequence (Q02153 1-619): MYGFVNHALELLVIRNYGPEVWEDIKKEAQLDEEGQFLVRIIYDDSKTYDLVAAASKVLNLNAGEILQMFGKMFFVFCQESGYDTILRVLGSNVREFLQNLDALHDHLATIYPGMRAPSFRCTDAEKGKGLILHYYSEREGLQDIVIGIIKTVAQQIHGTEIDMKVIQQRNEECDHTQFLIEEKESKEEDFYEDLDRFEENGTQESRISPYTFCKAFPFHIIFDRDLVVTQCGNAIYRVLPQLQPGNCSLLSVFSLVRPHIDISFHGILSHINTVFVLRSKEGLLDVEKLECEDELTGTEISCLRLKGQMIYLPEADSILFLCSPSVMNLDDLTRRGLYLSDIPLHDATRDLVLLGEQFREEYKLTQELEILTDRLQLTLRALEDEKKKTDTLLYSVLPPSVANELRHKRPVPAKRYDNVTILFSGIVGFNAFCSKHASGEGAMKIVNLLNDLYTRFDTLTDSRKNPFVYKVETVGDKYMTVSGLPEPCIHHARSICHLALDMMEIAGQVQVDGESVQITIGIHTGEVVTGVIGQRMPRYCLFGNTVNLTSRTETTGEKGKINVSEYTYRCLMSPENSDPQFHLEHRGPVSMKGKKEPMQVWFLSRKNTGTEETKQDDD
T1 sequence (Q02108 1-690 partner): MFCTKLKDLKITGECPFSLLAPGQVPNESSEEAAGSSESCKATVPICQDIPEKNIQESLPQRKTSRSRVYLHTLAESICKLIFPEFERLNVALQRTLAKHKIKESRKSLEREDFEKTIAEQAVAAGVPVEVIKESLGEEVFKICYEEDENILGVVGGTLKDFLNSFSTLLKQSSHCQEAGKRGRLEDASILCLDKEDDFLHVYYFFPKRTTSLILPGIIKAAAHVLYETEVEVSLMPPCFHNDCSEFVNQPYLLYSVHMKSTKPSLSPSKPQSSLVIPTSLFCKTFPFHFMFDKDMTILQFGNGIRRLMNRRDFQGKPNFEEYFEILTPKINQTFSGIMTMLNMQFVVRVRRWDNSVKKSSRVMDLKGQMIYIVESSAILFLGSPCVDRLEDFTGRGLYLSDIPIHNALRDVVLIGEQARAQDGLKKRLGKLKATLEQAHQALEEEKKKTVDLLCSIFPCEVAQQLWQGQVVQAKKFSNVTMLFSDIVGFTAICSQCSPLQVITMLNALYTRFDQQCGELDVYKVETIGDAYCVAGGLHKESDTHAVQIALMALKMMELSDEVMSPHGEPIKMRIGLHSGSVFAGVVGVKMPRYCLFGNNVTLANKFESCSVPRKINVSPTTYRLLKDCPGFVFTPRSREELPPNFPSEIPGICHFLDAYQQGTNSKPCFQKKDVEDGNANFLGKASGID
Nature of the assay: Maximum effect of sGC activating function (Ca2+ fluorescence in CHO-K1 cells expressing human sGC and mouse CNGA2). Format: cell-based. Conditions: increase ratio of sGC activity vs control solution at 10 μmol/L test compound. As for the experimental part:
(§1) For the assay, Chinese hamster ovary cells (CHO-K1 cells) in which human sGC α subunit and β subunit and mouse cyclic nucleotide gated channel (CNGA2) are stably expressed were used.
(§2) CHO-K1 cells in which human sGC and mouse CNGA2 are stably expressed were cultured at 37° C. in F-12 medium containing 10% (v/v) fetal bovine serum (FBS), penicillin (100 U/mL), streptomycin (100 μg/mL), G418 (250 μg/mL), and zeocin (250 μg/mL). The cells were suspended in the culture medium and seeded onto a 96-well plate, and then cultured at 37° C. for 24 hours. After washing with assay buffer 1 (140 mmol/L sodium chloride, 5 mmol/L potassium chloride, 0.5 mmol/L magnesium chloride, 0.01 mmol/L calcium chloride, 10 mmol/L glucose, 0.4 mmol/L magnesium sulfate, 10 mmol/L 4-(2-hydroxyethyl)piperazin-1-ylethane sulfonic acid, and 125 μmol/L sulfinpyrazone, pH 7.4), an indicator solution in which FURA2-AM as a fluorescent Ca^2+ indicator is dissolved at concentration of 5 μmol/L in assay buffer 1 was added followed by culture for 60 minutes at 37° C. The indicator solution was removed. After washing with assay buffer 1, the test compound solution was added and incubated for 10 minutes at room temperature. The plate was placed in a fluorometer (Flex Station II, Molecular Devices, LLC), and then the intracellular calcium concentration was measured as fluorescence intensity ratio which is obtained from each excitation wavelength (excitation wavelength of 340 nm and 380 nm and detection wavelength of 510 nm).
(§3) The test compound solution was prepared by dissolving each of the test compounds in DMSO to a concentration of 10 mmol/L, and then adding the assay buffer 2 (140 mmol/L sodium chloride, 5 mmol/L potassium chloride, 0.5 mmol/L magnesium chloride, 1 mmol/L calcium chloride, 10 mmol/L glucose, 0.4 mmol/L magnesium sulfate, 10 mmol/L 4-(2-hydroxyethyl)piperazin-1-ylethane sulfonic acid, 125 μmol/L sulfinpyrazone, 100 μmol/L isobutylmethylxanthine, 10 μmol/L 1H-[1,2,4]-oxadiazole[4,3-a]quinoxalin-1-one (hereinbelow, ODQ), pH 7.4) for dilution to have test concentration of 10 μmol/L. For the evaluation of a case in which ODQ is not contained, the same evaluation was performed except that ODQ is excluded from assay buffer 2. As a control solution, a DMSO solution was used instead of the test compound solution.
(§4) The activity of the test compound corresponds to the increase ratio (%) of the sGC activity at the time of adding the test compound solution with respect to the sGC activity at the time of adding the control solution, and it was calculated by dividing the fluorescence intensity ratio at the time of adding the test compound by the fluorescence intensity ratio of the control solution and subtracting the sGC activity (100%) at the time of adding the control solution.
In this assay, intracellular cGMP concentration increases as sGC is activated, and according to opening of CNGA2 following the increase of cGMP, intracellular Ca^2+ concentration increases. Thus, SGC activation can be measured by following the change in intracellular Ca^2+ concentration. […] Thus, in the absence of ODQ, the maximum sGC activating function including the heme-dependent activation can be evaluated while the heme-independent sGC activating function can be evaluated in the presence of ODQ.

For assay [2], the target named is T1, human sGC α subunit and β subunit. The assay can be described thus: Heme-independent property of sGC activating function (EC50 ratio, CHO-K1 cells expressing human sGC and mouse CNGA2). Format: cell-based. Conditions: EC50 in the absence of ODQ divided by EC50 in the presence of ODQ, sGC activation. As for the experimental part:
as §1, §2, §3, §4
For the representative compounds, activity was measured in the same manner as Test Example 1 at each test concentration of 0.0001, 0.001, 0.003, 0.01, 0.03, 0.1, 1, and 10 μmol/L.
The degree of heme-independent property of each test compound with regard to sGC activating function was obtained by dividing, for EC50 measured from the concentration-activation curve which has been established from the above, EC50 in the absence of ODQ by EC50 in the presence of ODQ. Specifically, the smaller the EC50 ratio is, the less the change in sGC activating function is, the change in the function being caused by the presence or absence of ODQ, and thus it is found to be more heme-independent.
EC50 value was obtained by measuring the activity of each compound to be tested at concentrations of 0.0001, 0.001, 0.003, 0.01, 0.03, 0.1, 1, and 10 μmol/L and performing the calculation using four-parameter logistics model using Assay Explorer (Accelrys).

Where [3] appears, read: ODQ not contained, read-out: Emax (%) ODQ− (Heme-dependent).
[4] abbreviates: with 10 μmol/L ODQ, read-out: Emax (%) ODQ+ (Heme-independent).

A word on the Emax: it is the size of the effect at its maximum, as opposed to the concentration needed.

Regarding `O=C(O)CCCCN(CCc1ccccc1OCc1ccc(CCc2ccccc2)cc1)C1CCc2cc(C(=O)O)ccc21` (stereo not drawn) [Example 1, 1-{N-(4-Carboxybutyl)-N-[2-[2-[4-(2-phenylethyl)benzyloxy]phenyl]ethyl]amino}indane-5-carboxylic acid], the Emax at 10 µM in assay [1] (setting [3]) was determined as 85.6%; in assay [1] (setting [4]), 103%. Moreover, the “EC50 Ratio (ODQ−/ODQ+)” value in assay [2] worked out at 2.86.
For `O=C(O)CCCCN(CCc1ccccc1OCc1ccc(CCc2ccccc2)cc1)C1CCCc2cc(C(=O)O)ccc21` (stereo not drawn) [Example 2, 5-{N-(4-Carboxybutyl)-N-[2-[2-[4-(2-phenylethyl)benzyloxy]phenyl]ethyl]amino}-5,6,7,8-tetrahydronaphthalene-2-carboxylic acid], in that order: 97.5%, 109% and 2.67.
On to `O=C(O)CCCCN(CCc1ccccc1OCc1ccc(CCc2ccccc2)cc1)C1CCCCc2cc(C(=O)O)ccc21` (stereo not drawn) [Example 3, 5-{N-(4-Carboxybutyl)-N-[2-[2-[4-(2-phenylethyl)benzyloxy]phenyl]ethyl]amino}-6,7,8,9-tetrahydro-5H-benzocycloheptene-2-carboxylic acid], for which the Emax at 10 µM in assay [1] (setting [3]) worked out at 102%; in assay [1] (setting [4]) it was 111%. In assay [2], the “EC50 Ratio (ODQ−/ODQ+)” value is recorded as 2.54.
For `O=C(O)CCCCN(CCc1ccccc1OCc1ccc(CCc2ccccc2)cc1)C1CCSc2cc(C(=O)O)ccc21` (stereo not drawn) [Example 5, 4-{N-(4-Carboxybutyl)-N-[2-[2-[4-(2-phenylethyl)benzyloxy]phenyl]ethyl]amino}thiochromane-7-carboxylic acid], the Emax at 10 µM in assay [1] (setting [3]) is 84.5%; in assay [1] (setting [4]), 86.9%.
Consider `O=C(O)CCCCN(CCc1ccccc1OCc1ccccc1Cl)C1CCCc2cc(C(=O)O)ccc21` (stereo not drawn) [Example 13, 5-{N-(4-Carboxybutyl)-N-[2-[2-(2-chlorobenzyloxyl)phenyl]ethyl]amino}-5,6,7,8-tetrahydronaphthalene-2-carboxylic acid], for which the Emax at 10 µM was 64.2% in assay [1] (setting [3]) and 87.2% in assay [1] (setting [4]).
For `O=C(O)CCCCN(CCc1ccccc1OCc1ccc(COc2ccccc2)cc1)C1CCCc2cc(C(=O)O)ccc21` (stereo not drawn) [Example 16, 5-{N-(4-Carboxybutyl)-N-[2-[2-(4-phenoxymethylbenzyloxy)phenyl]ethyl]amino}-5,6,7,8-tetrahydronaphthalene-2-carboxylic acid], in that order: 116% and 97.5%.
Take `O=C(O)CCCCN(CCc1ccccc1OCc1ccc(CSc2ccccc2)cc1)C1CCCc2cc(C(=O)O)ccc21` (stereo not drawn) [Example 17, 5-{N-(4-Carboxybutyl)-N-[2-[2-(4-phenylsulfanylmethylbenzyloxy)phenyl]ethyl]amino}-5,6,7,8-tetrahydronaphthalene-2-carboxylic acid]: the Emax at 10 µM in assay [1] (setting [3]) came to 115%; in assay [1] (setting [4]) it was 91.8%.
For `C#Cc1ccc(COc2ccccc2CCN(CCCCC(=O)O)C2CCCc3cc(C(=O)O)ccc32)cc1` (stereo not drawn) [Example 19, 5-{N-(4-Carboxybutyl)-N-[2-[2-(4-ethynylbenzyloxy)phenyl]ethyl]amino}-5,6,7,8-tetrahydronaphthalene-2-carboxylic acid], in that order: 88.7% and 88%.
Consider `O=C(O)CCCCN(CCc1ccccc1OCc1ccc(C#CC2CCCCC2)cc1)C1CCCc2cc(C(=O)O)ccc21` (stereo not drawn) [Example 22, 5-{N-(4-Carboxybutyl)-N-[2-[2-(4-cyclohexylethynylbenzyloxy)phenyl]ethyl]amino}-5,6,7,8-tetrahydronaphthalene-2-carboxylic acid], for which the Emax at 10 µM in assay [1] (setting [3]) stood at 108%; in assay [1] (setting [4]), 100%.
Regarding `O=C(O)CCCCN(CCc1ccccc1OCc1ccc(CCC2CCCCC2)cc1)C1CCCc2cc(C(=O)O)ccc21` (stereo not drawn) [Example 24, 5-{N-(4-Carboxybutyl)-N-[2-[2-[4-(2-cyclohexylethyl)benzyloxy]phenyl]ethyl]amino}-5,6,7,8-tetrahydronaphthalene-2-carboxylic acid], the Emax at 10 µM in assay [1] (setting [3]) turned out to be 135%; in assay [1] (setting [4]), 114%.
Turning to `O=C(O)CCCCN(CCc1ccccc1OC[C@H]1CC[C@H](CCc2ccccc2)CC1)C1CCCc2cc(C(=O)O)ccc21` (stereo partly drawn) [Example 26, 5-{N-(4-Carboxybutyl)-N-[2-[2-[trans-4-(2-phenylethyl)cyclohexylmethoxy]phenyl]ethyl]amino}-5,6,7,8-tetrahydronaphthalene-2-carboxylic acid], the Emax at 10 µM in assay [1] (setting [3]) turned out to be 119%; in assay [1] (setting [4]) it was 86.9%.
For `CC(C)(C)c1cccc(COc2ccccc2CCN(CCCCC(=O)O)C2CCCc3cc(C(=O)O)ccc32)c1` (stereo not drawn) [Example 41, 5-{N-[2-[2-(3-tert-Butylbenzyloxy)phenyl]ethyl]-N-(4-carboxybutyl)amino}-5,6,7,8-tetrahydronaphthalene-2-carboxylic acid], in that order: 109% and 140%.
